Data published in ChEMBL document CHEMBL2311471, “Synthesis of (E)-8-(3-chlorostyryl)caffeine analogues leading to 9-deazaxanthine derivatives as dual A(2A) antagonists/MAO-B inhibitors” (J Med Chem, 2013).
Calls of active or inactive are those of the source. No cut-off for these calls is given here.

Legend:
[1] = biological target: T1, Amine oxidase [flavin-containing] B (Homo sapiens, UniProt P27338); experiment: Inhibition of human MAOB after 1 hr by luminescence assay
T1 sequence (P27338 whole entry): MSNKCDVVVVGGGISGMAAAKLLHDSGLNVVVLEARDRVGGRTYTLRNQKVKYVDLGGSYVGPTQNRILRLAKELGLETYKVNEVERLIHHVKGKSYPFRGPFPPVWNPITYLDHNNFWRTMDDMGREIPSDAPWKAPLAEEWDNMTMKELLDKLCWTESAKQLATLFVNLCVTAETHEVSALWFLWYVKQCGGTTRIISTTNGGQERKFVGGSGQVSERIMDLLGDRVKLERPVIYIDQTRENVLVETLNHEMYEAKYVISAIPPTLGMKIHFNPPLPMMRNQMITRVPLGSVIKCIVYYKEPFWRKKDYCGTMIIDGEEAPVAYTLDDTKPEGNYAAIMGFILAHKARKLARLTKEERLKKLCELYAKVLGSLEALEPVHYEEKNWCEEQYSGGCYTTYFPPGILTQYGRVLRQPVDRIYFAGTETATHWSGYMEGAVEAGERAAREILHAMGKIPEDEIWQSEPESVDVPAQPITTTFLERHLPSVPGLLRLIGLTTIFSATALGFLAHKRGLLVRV

[2] = biological target: T2, Adenosine receptor A2a (Homo sapiens, UniProt P29274); experiment: Displacement of [3H]ZM241385 from human adenosine A2A receptor expressed in HEK293 cells after 1 hr by microbeta scintillation counting analysis; format: cell-based
T2 sequence (P29274 whole entry): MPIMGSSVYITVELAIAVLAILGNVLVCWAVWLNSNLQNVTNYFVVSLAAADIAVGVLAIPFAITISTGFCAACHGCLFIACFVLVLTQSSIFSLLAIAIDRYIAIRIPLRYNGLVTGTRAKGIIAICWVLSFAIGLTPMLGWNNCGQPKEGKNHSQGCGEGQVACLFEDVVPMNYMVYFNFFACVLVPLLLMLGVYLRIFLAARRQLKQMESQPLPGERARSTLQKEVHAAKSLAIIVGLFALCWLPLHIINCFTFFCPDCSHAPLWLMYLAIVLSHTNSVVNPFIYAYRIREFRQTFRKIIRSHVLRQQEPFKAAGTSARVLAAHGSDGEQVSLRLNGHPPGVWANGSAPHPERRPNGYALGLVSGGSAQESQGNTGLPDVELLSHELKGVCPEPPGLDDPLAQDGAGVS

[3] = biological target: T3, Amine oxidase [flavin-containing] A (Homo sapiens, UniProt P21397); experiment: Inhibition of human MAOA after 1 hr by luminescence assay
T3 sequence (P21397 whole entry): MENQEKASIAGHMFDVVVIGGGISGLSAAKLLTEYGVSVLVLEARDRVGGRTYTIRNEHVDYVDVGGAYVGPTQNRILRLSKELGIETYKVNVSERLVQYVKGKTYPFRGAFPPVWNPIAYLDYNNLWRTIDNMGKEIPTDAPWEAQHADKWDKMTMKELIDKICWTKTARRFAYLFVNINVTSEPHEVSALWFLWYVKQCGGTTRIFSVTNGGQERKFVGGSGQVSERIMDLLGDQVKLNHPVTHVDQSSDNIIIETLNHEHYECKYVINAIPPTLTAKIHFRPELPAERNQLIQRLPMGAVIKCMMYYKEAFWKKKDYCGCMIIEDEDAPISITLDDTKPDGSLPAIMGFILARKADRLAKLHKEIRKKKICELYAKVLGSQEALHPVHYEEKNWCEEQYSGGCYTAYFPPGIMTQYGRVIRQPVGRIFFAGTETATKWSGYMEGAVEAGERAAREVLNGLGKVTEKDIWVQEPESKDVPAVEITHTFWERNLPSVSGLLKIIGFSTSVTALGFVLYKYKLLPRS

[4] = biological target: Adenosine receptor A2a (Rattus norvegicus, UniProt P30543); experiment: Binding affinity to A2A receptor in rat brain striatal membrane by radioligand displacement assay; format: cell membranes
Chain of Adenosine receptor A2a (Rattus norvegicus, UniProt P30543) (P30543 whole entry): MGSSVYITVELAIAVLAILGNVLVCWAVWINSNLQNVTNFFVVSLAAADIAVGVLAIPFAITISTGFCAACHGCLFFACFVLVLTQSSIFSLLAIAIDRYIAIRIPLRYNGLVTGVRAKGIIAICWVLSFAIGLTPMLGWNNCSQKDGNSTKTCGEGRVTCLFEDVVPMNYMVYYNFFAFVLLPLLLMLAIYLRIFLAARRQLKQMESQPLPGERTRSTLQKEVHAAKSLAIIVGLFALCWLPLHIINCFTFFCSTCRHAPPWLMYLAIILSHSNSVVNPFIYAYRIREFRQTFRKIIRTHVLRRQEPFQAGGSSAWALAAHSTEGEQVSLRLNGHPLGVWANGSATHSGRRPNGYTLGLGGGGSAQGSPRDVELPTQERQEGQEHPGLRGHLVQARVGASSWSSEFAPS

[5] = biological target: T4, Substance-K receptor (Homo sapiens) (UniProt P21452); experiment: Displacement of [125I]NKA human recombinant NK2 receptor expressed in CHO cells at 10 uM after 60 mins by scintillation counting analysis; format: cell-based
T4 sequence (whole entry): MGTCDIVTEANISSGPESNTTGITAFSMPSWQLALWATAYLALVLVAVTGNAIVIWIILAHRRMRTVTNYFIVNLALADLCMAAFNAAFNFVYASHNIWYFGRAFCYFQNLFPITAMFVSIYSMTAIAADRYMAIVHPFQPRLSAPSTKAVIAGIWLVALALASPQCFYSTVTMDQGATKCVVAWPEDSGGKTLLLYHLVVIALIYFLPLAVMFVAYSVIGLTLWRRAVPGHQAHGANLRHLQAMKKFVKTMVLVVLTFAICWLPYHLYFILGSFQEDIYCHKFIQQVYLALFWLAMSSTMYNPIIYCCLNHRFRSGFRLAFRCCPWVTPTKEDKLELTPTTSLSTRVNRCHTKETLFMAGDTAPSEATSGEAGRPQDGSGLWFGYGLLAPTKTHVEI

[6] = system: Mus musculus; experiment: General behavioral response in CD1 mouse assessed as induction of limbic stereotype at 10 mg/kg, po after 90 mins by Irwin test; format: organism-based, Limbic system; parameters: dose 10 mg/kg, route oral; conditions: in vivo, 1.5 h
[7] = system: Mus musculus; experiment: General behavioral response in CD1 mouse assessed as induction of striatal stereotype at 10 mg/kg, po after 90 mins by Irwin test; format: organism-based; parameters: dose 10 mg/kg, route oral; conditions: in vivo, 1.5 h
[8] = biological target: T5, Adenosine receptor A3 (Homo sapiens) (UniProt P0DMS8); experiment: Displacement of [125I]AB-MECA from human recombinant adenosine A3 receptor expressed in HEK293 cells at 10 uM after 120 mins by scintillation counting analysis; format: cell-based
T5 sequence (whole entry): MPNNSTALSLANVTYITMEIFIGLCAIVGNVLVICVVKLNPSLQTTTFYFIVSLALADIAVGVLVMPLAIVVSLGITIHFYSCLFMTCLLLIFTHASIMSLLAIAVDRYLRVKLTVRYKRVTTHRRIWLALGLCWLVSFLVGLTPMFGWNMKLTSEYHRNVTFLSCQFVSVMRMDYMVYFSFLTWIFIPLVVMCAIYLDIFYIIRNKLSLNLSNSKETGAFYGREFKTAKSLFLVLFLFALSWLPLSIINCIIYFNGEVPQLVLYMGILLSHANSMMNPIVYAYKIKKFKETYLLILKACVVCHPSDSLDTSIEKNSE

[9] = biological target: Sodium-dependent noradrenaline transporter (Homo sapiens) (UniProt P23975); experiment: Displacement of [3H]nisoxetine from human recombinant norepinephrine transporter expressed in CHO cells at 10 uM after 120 mins by scintillation counting analysis; format: cell-based
Chain of Sodium-dependent noradrenaline transporter (Homo sapiens) (P23975 whole entry): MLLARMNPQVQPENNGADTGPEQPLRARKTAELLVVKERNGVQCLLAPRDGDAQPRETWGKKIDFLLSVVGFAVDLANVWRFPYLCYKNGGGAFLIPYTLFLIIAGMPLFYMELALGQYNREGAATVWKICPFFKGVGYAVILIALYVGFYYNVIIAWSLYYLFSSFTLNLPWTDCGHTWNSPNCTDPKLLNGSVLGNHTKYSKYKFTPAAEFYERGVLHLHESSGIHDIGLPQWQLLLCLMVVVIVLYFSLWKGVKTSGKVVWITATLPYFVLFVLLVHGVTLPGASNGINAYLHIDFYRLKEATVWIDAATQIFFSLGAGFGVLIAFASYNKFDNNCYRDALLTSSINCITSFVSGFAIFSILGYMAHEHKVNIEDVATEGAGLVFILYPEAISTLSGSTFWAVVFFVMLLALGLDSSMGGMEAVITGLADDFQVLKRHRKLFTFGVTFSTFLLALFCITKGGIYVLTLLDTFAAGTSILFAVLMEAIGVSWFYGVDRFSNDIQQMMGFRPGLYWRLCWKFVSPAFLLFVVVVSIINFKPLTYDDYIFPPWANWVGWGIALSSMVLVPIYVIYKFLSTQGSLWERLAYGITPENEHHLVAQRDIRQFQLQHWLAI

[10] = biological target: T2, Adenosine receptor A2a; experiment: Displacement of [3H]CGS 21680 from human recombinant adenosine A2A receptor expressed in HEK293 cells at 10 uM after 120 mins by scintillation counting analysis; format: cell-based
[11] = biological target: T6, Adenosine receptor A1 (Homo sapiens) (UniProt P30542); experiment: Displacement of [3H]DPCPX from human recombinant adenosine A1 receptor expressed in CHO cells at 10 uM after 60 mins by scintillation counting analysis; format: cell-based
T6 sequence (whole entry): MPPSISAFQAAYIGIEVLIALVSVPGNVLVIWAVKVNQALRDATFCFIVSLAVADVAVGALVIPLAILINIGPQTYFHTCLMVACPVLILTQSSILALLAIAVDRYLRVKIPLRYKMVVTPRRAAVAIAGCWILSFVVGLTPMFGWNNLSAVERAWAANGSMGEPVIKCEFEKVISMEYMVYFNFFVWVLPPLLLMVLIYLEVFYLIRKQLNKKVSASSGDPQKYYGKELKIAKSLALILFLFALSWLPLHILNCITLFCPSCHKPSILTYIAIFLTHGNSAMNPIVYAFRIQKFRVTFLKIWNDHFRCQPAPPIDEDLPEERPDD

[12] = system: Mus musculus; experiment: General behavioral response in CD1 mouse assessed as induction of limbic stereotype at 30 to 100 mg/kg, po after 90 mins by Irwin test; format: organism-based, Limbic system; parameters: dose 30-100 mg/kg, route oral; conditions: in vivo, 1.5 h
[13] = system: Mus musculus; experiment: General behavioral response in CD1 mouse assessed as induction of striatal stereotype at 30 to 100 mg/kg, po after 90 mins by Irwin test; format: organism-based; parameters: dose 30-100 mg/kg, route oral; conditions: in vivo, 1.5 h
[14] = system: Mus musculus; experiment: Reversal of haloperidol-induced catalepsy in CD1 mouse at 10 mg/kg, po treated 2.5 hrs after haloperidol injection measured every 60 mins for 3 hrs; format: functional, organism-based; parameters: dose 10 mg/kg
[15] = biological target: 5-hydroxytryptamine receptor 2B (Homo sapiens) (UniProt P41595); experiment: Displacement of [125I](+/-)DOI from human recombinant 5HT2B receptor expressed in CHO cells at 10 uM after 60 mins by scintillation counting analysis; format: cell-based
Chain of 5-hydroxytryptamine receptor 2B (Homo sapiens) (P41595 whole entry): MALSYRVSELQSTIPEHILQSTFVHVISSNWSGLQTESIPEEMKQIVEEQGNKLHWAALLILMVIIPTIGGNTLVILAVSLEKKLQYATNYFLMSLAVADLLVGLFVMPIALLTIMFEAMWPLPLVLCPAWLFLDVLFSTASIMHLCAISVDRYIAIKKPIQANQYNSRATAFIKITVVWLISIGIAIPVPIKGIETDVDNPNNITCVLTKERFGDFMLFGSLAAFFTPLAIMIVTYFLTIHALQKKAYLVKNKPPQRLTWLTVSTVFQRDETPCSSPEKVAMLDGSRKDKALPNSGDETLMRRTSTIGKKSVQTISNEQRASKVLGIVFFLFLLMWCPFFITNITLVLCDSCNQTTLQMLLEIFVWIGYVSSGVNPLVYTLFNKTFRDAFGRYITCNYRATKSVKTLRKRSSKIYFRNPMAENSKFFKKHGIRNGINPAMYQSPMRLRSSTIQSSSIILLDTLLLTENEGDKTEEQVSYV

[16] = system: Mus musculus; experiment: Reversal of haloperidol-induced catalepsy in CD1 mouse at 30 to 100 mg/kg, po treated 2.5 hrs after haloperidol injection measured every 60 mins for 3 hrs; format: functional, organism-based
[17] = system: Mus musculus; experiment: Reversal of haloperidol-induced catalepsy in po dosed CD1 mouse treated 2.5 hrs after haloperidol injection measured every 60 mins for 3 hrs; format: functional, organism-based
[18] = system: Mus musculus; experiment: General behavioral response in CD1 mouse assessed as increase in licking behavior at 100 mg/kg, po after 240 mins by Irwin test; format: ADME, organism-based; parameters: dose 100 mg/kg, route oral; conditions: in vivo, 4 h

## Cn1c(=O)c2c(cc(/C=C/c3cccc(C(F)(F)F)c3)n2C)n(C)c1=O
[1]
  IC50: 0.48 µM
[2]
  Ki: > 10 µM
[3]
  IC50: 5.69 µM

## Cn1c(=O)c2c(cc(OCc3ccc4ccccc4c3)n2C)n(C)c1=O
[1]
  IC50: > 1 µM
[2]
  Ki: > 10 µM
[3]
  IC50: > 10 µM

## C#CCn1c(=O)c2c(nc(C#Cc3ccccc3)n2C)n(C)c1=O
[4]
  Ki: 0.3 µM

## Cn1c(=O)c2c(cc(OCc3ccc(Cl)cc3)n2C)n(C)c1=O
[1]
  IC50: 0.0481 µM
[2]
  Ki: > 10 µM
[3]
  IC50: 2.87 µM

## Cn1c(=O)c2c(cc(C#Cc3cccc(Cl)c3)n2C)n(C)c1=O
[1]
  IC50: 0.173 µM
[2]
  Ki: > 10 µM
[3]
  IC50: > 10 µM

## Cn1c(=O)c2c(cc(C#Cc3ccc(Cl)cc3)n2C)n(C)c1=O
[1]
  IC50: 0.0678 µM
[2]
  Ki: > 10 µM
[3]
  IC50: 2.02 µM

## Cn1c(=O)c2c(c3cc(OCc4ccccc4)ccc3n2C)n(C)c1=O
[1]
  IC50: 5.22 µM
[2]
  Ki: > 1 µM
[3]
  IC50: > 10 µM

## Cn1c(=O)c2c(cc(/C=C/c3ccc(F)cc3)n2C)n(C)c1=O
[1]
  IC50: 0.175 µM
[2]
  Ki: 0.423 µM
[3]
  IC50: 0.812 µM

## Cn1c(=O)c2c(c3ccc(-c4cccc(Cl)c4)cc3n2C)n(C)c1=O
[1]
  IC50: 1.39 µM
[2]
  Ki: > 1 µM
[3]
  IC50: 3.11 µM

## Cn1c(=O)c2c(cc(/C=C/c3ccc(C(F)(F)F)cc3)n2C)n(C)c1=O
[1]
  IC50: 0.432 µM
[2]
  Ki: 0.531 µM
[3]
  IC50: > 10 µM

## COc1cccc(/C=C/c2cc3c(c(=O)n(C)c(=O)n3C)n2C)c1
[1]
  IC50: 0.37 µM
[2]
  Ki: 0.391 µM
[3]
  IC50: 1.24 µM

## CCCOc1ccc(/C=C/c2cc3c(c(=O)n(C)c(=O)n3C)n2C)cc1
[1]
  IC50: 1.37 µM
[2]
  Ki: 0.307 µM
[3]
  IC50: 1.3 µM

## Cn1c(=O)c2c(cc(-n3cc(-c4ccc(Cl)cc4)nn3)n2C)n(C)c1=O
[1]
  IC50: 0.182 µM
[2]
  Ki: > 10 µM
[3]
  IC50: 0.726 µM

## Cn1c(=O)c2c(cc(/C=C/c3ccc(Br)cc3)n2C)n(C)c1=O
[1]
  IC50: 0.267 µM
[2]
  Ki: > 10 µM
[3]
  IC50: 1.63 µM

## Cn1c(=O)c2c(cc(/C=C/c3ccc(Cl)cc3)n2C)n(C)c1=O
[5]
  inhibition: 75%
[6]
  Activity: Non-toxic
[1]
  IC50: 0.2 µM
[7]
  Activity: Non-toxic
[8]
  inhibition: 60%
[9]
  inhibition: 57%
[10]
  inhibition: 91%
[11]
  inhibition: 59%
[12]
  Activity: Toxic
[13]
  Activity: Toxic
[14]
  Activity: inactive
[2]
  Ki: 0.26 µM
[15]
  inhibition: 72%
[3]
  IC50: 10 µM
[16]
  Activity: Active
[17]
  Activity: Dose-dependent effect
[18]
  Activity: Toxic

## Cn1c(=O)c2c(nc(/C=C/c3ccc(Cl)cc3)n2C)n(C)c1=O
[1]
  IC50: 0.43 µM
[2]
  Ki: 0.141 µM
[3]
  IC50: > 10 µM

## CC(=O)c1ccc(/C=C/c2cc3c(c(=O)n(C)c(=O)n3C)n2C)cc1
[1]
  IC50: 0.587 µM
[2]
  Ki: 0.0939 µM
[3]
  IC50: > 10 µM

## Cn1c(=O)c2c(cc(/C=C/c3ccc(C#N)cc3)n2C)n(C)c1=O
[1]
  IC50: 0.543 µM
[2]
  Ki: > 1 µM
[3]
  IC50: > 10 µM

## COc1ccc(/C=C/c2cc3c(c(=O)n(C)c(=O)n3C)n2C)cc1
[1]
  IC50: 0.762 µM
[2]
  Ki: 0.247 µM
[3]
  IC50: > 1 µM

## Cn1c(=O)c2c(cc(OCc3ccc(Cl)c(C(F)(F)F)c3)n2C)n(C)c1=O
[1]
  IC50: 0.583 µM
[2]
  Ki: > 10 µM
[3]
  IC50: > 10 µM
